Results published in US20260306639A1, “DEGRADER FOR DECOMPOSING CMET PROTEIN, AND PHARMACEUTICAL COMPOSITION COMPRISING SAME” (INNOCURE THERAPEUTICS, INC., priority 2022, published 2026).
Blank lines part the entries; values can stand above or below the compound they belong to.

What was measured:
c-MET [1] = experiment: c-MET protein degradation (Simple Western), EBC-1 cells; assay type: cell-based, human; details: EBC-1 lung cancer cells, c-MET overexpressing; 48 hours
Protocol: (§1) In order to assess the resolution of the compound of the present invention for c-MET expressed in cells, cells were dispensed in a 12-well plate at a concentration of 2×10^5 cells/well, and then gastric cancer cell lines were treated with samples for 24 hours and lung cancer cell lines were treated for 48 hours. Cell lysates were collected using a scraper on ice, centrifuged at 4° C. 15,000 rpm for 30 min to obtain a protein-containing supernatant. Protein expression was then measured using the Simple Western Automated Western Blot System Abby instrument using 3 μg of protein for each sample. SDS and heat-induced denaturation proteins were separated by molecular weight, attached to capillary, reacted with anti-c-MET or anti-GAPDH antibodies, which are primary antibodies, and then reacted with HRP-conjugated secondary antibodies, and analyzed the protein expression signal with compass software. Protein expression was normalized based on the expression value of GAPDH, and protein development in each sample was measured as a percentage (%) based on 100% of samples treated with 0.1% DMSO carriers, and DC50 (concentration of a compound where 50% protein inhibition is achieved) was calculated from the change in protein expression amount due to compound treatment.

SNU-638 = experiment: cell viability / antiproliferative activity (WST-8), SNU-638 cells; assay type: cell-based, human; details: SNU-638 gastric cancer cells, 72 hours
Protocol: (§2) c-MET overexpressing human gastric cancer cell lines [MKN45] and [SNU638] were cultured in RPMI medium with 10% fetal bovine serum, penicillin (100 U/ml), and streptomycin (100 mg/ml), and c-MET exon 14 skipping mutant human gastric cancer cell lines [Hs746T] were cultured in DMEM media. The c-MET overexpressing human lung cancer cell line EBC-1 was cultured in MEM media with the addition of 10% fetal bovine serum, penicillin (100 U/ml), and streptomycin (100 mg/ml). […] The compound synthesized in accordance with the present invention was prepared with a raw material solution of 10 mM dissolved in DMSO (dimethyl sulfoxide), and was sequentially diluted and processed.
(§3) In order to observe the inhibitory activity on cell growth, cells were dispensed in a 96-well plate at a concentration of 5,000 cells/well, and then treated with the compound prepared at various concentrations for 72 hours. The viability of the cells was calculated using GraphicPad Prism 8.0 software by adding 10 ml per well of WST-8 (water soluble tetrazolium salt) sample, which reacts with dehydrogenase present in the electron transport system of mitochondria to produce formazon, incubated for 2 hours, and measured absorbance at 450 nm.

EBC-1 = experiment: cell viability / antiproliferative activity (WST-8), EBC-1 cells; assay type: cell-based, human; details: EBC-1 lung cancer cells, 72 hours
Protocol: as §2, §3

c-MET [2] = experiment: c-MET protein degradation (Simple Western), SNU-638 cells; assay type: cell-based, human; details: SNU-638 gastric cancer cells, c-MET overexpressing; 24 hours
Protocol: as §1

MKN-45 = experiment: cell viability / antiproliferative activity (WST-8), MKN-45 cells; assay type: cell-based; details: Homo sapiens; MKN-45 gastric cancer cells; 72 hours
Protocol: as §2, §3

c-MET [3] = experiment: c-MET protein degradation (Simple Western), MKN-45 cells; assay type: cell-based, human; details: MKN-45 gastric cancer cells, c-MET overexpressing; 24 hours
Outline: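 Cells at 2×10^5 cells/well exposed to compound for 24 h (gastric lines) or 48 h (lung lines). Lysates (3 μg protein) probed for c-MET by capillary Simple Western, normalized to GAPDH and expressed as % of 0.1% DMSO control. DC50 is the concentration giving 50% protein reduction.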

DC50 (c-MET [1]): < 100 nM
IC50 (SNU-638; Homo sapiens): < 100 nM
DC50 (c-MET [2]): < 100 nM
Compound: N#Cc1cccc(-c2ccc(=O)n(Cc3cccc(-c4ncc(OCC5CCN(CC(=O)N6CCN(c7ccc(NC8CCC(=O)NC8=O)c(F)c7)CC6)CC5)cn4)c3)n2)c1 (stereo not shown) [ICT-0001437, 3-(1-(3-(5-((1-(1-(2-(4-((2,6-dioxopiperidine-3-yl)amino)-3-fluorophenyl)piperazine-1-yl)-2-oxoethyl)piperidine-4-yl)methoxy)pyrimidine-2-yl)benzyl)6-oxo-1,6-dihydropyridazine-3-yl)benzonitrile]
IC50 (EBC-1; Homo sapiens): < 100 nM

DC50 (c-MET [1]): < 100 nM
IC50 (SNU-638; Homo sapiens): 100 to 1000 nM
DC50 (c-MET [2]): > 1000 nM
Compound: N#Cc1cccc(-c2ccc(=O)n(Cc3cccc(-c4ncc(OCC5CCN(Cc6cn(C7CCC(=O)NC7=O)nn6)CC5)cn4)c3)n2)c1 (stereo not shown) [ICT-0001384, 3-{1-[(3-{5-[(1-{[1-(2,6-dioxopiperidine-3-yl)-1H-1,2,3-triazole-4-yl]methyl}piperidine-4-il)methoxy]pyrimidine-2-yl}phenyl)methyl]-6-oxo-1,6-dihydropyridazine-3-yl}benzonitrile]
IC50 (EBC-1; Homo sapiens): < 100 nM

DC50 (c-MET [1]): < 100 nM
DC50 (c-MET [2]): < 100 nM
Compound: N#Cc1cccc(-c2ccc(=O)n(Cc3cccc(-c4ncc(OCC5CCN(C(=O)CN6CCN(c7ccc(NC8CCC(=O)NC8=O)cc7F)CC6)CC5)cn4)c3)n2)c1 (stereo not shown) [ICT-0001494]

IC50 (SNU-638; Homo sapiens): < 100 nM
Compound: N#Cc1cccc(-c2ccc(=O)n(Cc3cccc(-c4ncc(OCC5CCN(CCOCCOCCOCC#Cc6cccc7c(=O)n(C8CCC(=O)NC8=O)ncc67)CC5)cn4)c3)n2)c1 (stereo not shown) [ICT-0001307]

DC50 (c-MET [1]): < 100 nM
DC50 (c-MET [2]): 100 to 1000 nM
Compound: N#Cc1cccc(-c2ccc(=O)n(Cc3cccc(-c4ncc(-c5cccc(CN6CCC(CN7CCN(c8ccc(NC9CCC(=O)NC9=O)cc8F)CC7)CC6)c5)cn4)c3)n2)c1 (stereo not shown) [ICT-0001450]

DC50 (c-MET [1]): < 100 nM
DC50 (c-MET [2]): < 100 nM
Compound: N#Cc1cccc(-c2ccc(=O)n(Cc3cccc(-c4ncc(OCC5CCN(CCN6CCN(c7ccc(NC8CCC(=O)NC8=O)cc7F)CC6)CC5)cn4)c3)n2)c1 (stereo not shown) [ICT-0001433, 3-(1-(3-(5-((1-(1-(2-(4-((2,6-dioxopiperidine-3-yl)amino)-2-fluorophenyl)piperazine-1-il)ethyl)piperidine-4-il)methoxy)pyrimidine-2-yl)benzyl)6-oxo-1,6-dihydropyridazine-3-yl)benzonitrile]

DC50 (c-MET [1]): < 100 nM
DC50 (c-MET [3]): < 100 nM
DC50 (c-MET [2]): < 100 nM
Compound: N#Cc1cccc(-c2ccc(=O)n(Cc3cccc(-c4ncc(OCC5CCN(CC(=O)N6CC(N7CCN(c8ccc9c(=O)n(C%10CCC(=O)NC%10=O)ncc9c8)CC7)C6)CC5)cn4)c3)n2)c1 (stereo not shown) [ICT-0001232]

IC50 (SNU-638; Homo sapiens): < 100 nM
Compound: N#Cc1cccc(-c2ccc(=O)n(Cc3cccc(-c4ncc(OCC5CCN(CCCCCc6ccc7c(=O)n(C8CCC(=O)NC8=O)ncc7c6)CC5)cn4)c3)n2)c1 (stereo not shown) [ICT-0001304]

IC50 (SNU-638; Homo sapiens): < 100 nM
Compound: Cc1nn(C2CCC(=O)NC2=O)c(=O)c2ccc(N3CCN(C4CCN(CCN5CCC(COc6cnc(-c7cccc(Cn8nc(-c9cccc(C#N)c9)ccc8=O)c7)nc6)CC5)CC4)CC3)cc12 (stereo not shown) [ICT-0001317]

DC50 (c-MET [1]): < 100 nM
DC50 (c-MET [2]): < 100 nM
Compound: Cn1cc(-c2cnc3c(nnn3C[C@@H]3CN(c4ncc(-c5ccc(CN6CCN(CC(=O)N7CCN(c8ccc(NC9CCC(=O)NC9=O)cc8F)CC7)CC6)cc5)cn4)CCO3)n2)cn1 (stereo partly shown) [ICT-0001439]

IC50 (SNU-638; Homo sapiens): < 100 nM
Compound: Cc1nn(C2CCC(=O)NC2=O)c(=O)c2cc(N3CCN(CC4CCN(CCN5CCC(COc6cnc(-c7cccc(Cn8nc(-c9cccc(C#N)c9)ccc8=O)c7)nc6)CC5)CC4)CC3)ccc12 (stereo not shown) [ICT-0001321]

IC50 (SNU-638; Homo sapiens): < 100 nM
Compound: Cc1nn(C2CCC(=O)NC2=O)c(=O)c2cc(F)c(N3CCN(CC4CCN(CCN5CCC(COc6cnc(-c7cccc(Cn8nc(-c9cccc(C#N)c9)ccc8=O)c7)nc6)CC5)CC4)CC3)cc12 (stereo not shown) [ICT-0001318]

DC50 (c-MET [1]): < 100 nM
DC50 (c-MET [2]): > 1000 nM
Compound: N#Cc1cccc(-c2ccc(=O)n(Cc3cccc(-c4ncc(-c5cccc(CN6CCN(c7ccc(C8CCC(=O)NC8=O)cn7)CC6)c5)cn4)c3)n2)c1 (stereo not shown) [ICT-0001449]

The next lines start with the compound.

Compound: Cn1cc(-c2cnc3c(nnn3C[C@@H]3CN(c4ncc(-c5ccc(CN6CCN(C(=O)COCCOCCNc7ccc8c(=O)n(C9CCC(=O)NC9=O)ncc8c7)CC6)cc5)cn4)CCO3)n2)cn1 (stereo partly shown) [ICT-0000935]
IC50 (MKN-45): 100 to 1000 nM
DC50 (c-MET [3]): 100 to 1000 nM

Compound: Cc1nn(C2CCC(=O)NC2=O)c(=O)c2ccc(N3CCN(CC4CCN(CC(=O)N5CCC(COc6cnc(-c7cccc(Cn8nc(-c9cccc(C#N)c9)ccc8=O)c7)nc6)CC5)CC4)CC3)cc12 (stereo not shown) [ICT-0001272]
IC50 (MKN-45): < 100 nM
DC50 (c-MET [3]): < 100 nM

Compound: Cc1nn(C2CCC(=O)NC2=O)c(=O)c2ccc(NCCOCCOCCOCCOCC(=O)N3CCC(COc4cnc(-c5cccc(Cn6nc(-c7cccc(C#N)c7)ccc6=O)c5)nc4)CC3)cc12 (stereo not shown) [ICT-0001089, 3-(1-(3-(5-((1-(14-((2-(2,6-dioxopiperidine-3-yl)-4-methyl-1-oxo-1,2-dihydrophthalazine-6-yl)amino)3,6,9,12-tetratetradecanoyl)piperidine-4-yl)methoxy)pyrimidin-2-yl)benzyl)6-oxo-1,6-dihydropyridazine-3-yl)benzonitrile]
IC50 (MKN-45): 100 to 1000 nM
DC50 (c-MET [3]): 100 to 1000 nM

Compound: Cc1nn(C2CCC(=O)NC2=O)c(=O)c2cc(N3CCN(CCCC(=O)N4CCC(COc5cnc(-c6cccc(Cn7nc(-c8cccc(C#N)c8)ccc7=O)c6)nc5)CC4)CC3)ccc12 (stereo not shown) [ICT-0001216, 3-(1-(3-(5-((1-(4-(4-(3-(2,6-dioxopiperidin-3-yl)-1-methyl-4-oxo-3,4-dihydroptalazine-6-yl)piperazine-1-il)butanoyl)piperidine-4-il)methoxy)pyrimidine-2-yl)benzyl)6-oxo-1,6-dihydropyridazine-3-yl)benzonitrile]
IC50 (MKN-45): < 100 nM
DC50 (c-MET [3]): < 100 nM

Compound: Cc1nn(C2CCC(=O)NC2=O)c(=O)c2cc(N3CCN(CC4CCN(C(=O)CN5CCC(COc6cnc(-c7cccc(Cn8nc(-c9cccc(C#N)c9)ccc8=O)c7)nc6)CC5)CC4)CC3)c(F)cc12 (stereo not shown) [ICT-0001231, 3-(1-(3-(5-((1-(2-(4-(4-(4-(3-(2,6-dioxopiperidine-3-yl)-7-fluoro-1-methyl-4-oxo-3,4-dihydrophthalazine-6-yl)piperazine-1-il)methyl)piperidine-1-il)-2-oxoethyl)piperidine-4-yl)methoxy)pyrimidine-2-yl)benzyl)6-oxo-1,6-dihydropyridazine-3-yl)benzonitrile]
IC50 (MKN-45): < 100 nM

Compound: Cc1nn(C2CCC(=O)NC2=O)c(=O)c2cc(N3CCN(C(=O)CN4CCC(COc5cnc(-c6cccc(Cn7nc(-c8cccc(C#N)c8)ccc7=O)c6)nc5)CC4)CC3)ccc12 (stereo not shown) [ICT-0001214, 3-(1-(3-(5-((1-(2-(4-(3-(2,6-dioxopiperidin-3-yl)-1-methyl-4-oxo-3,4-dihydropetalazine-6-yl)piperazine-1-il)acetyl)piperidine-4-il)methoxy)pyrimidine-2-yl)benzyl)6-oxo-1,6-dihydropyridazine-3-yl)benzonitrile]
IC50 (MKN-45): < 100 nM
DC50 (c-MET [3]): < 100 nM

Compound: 3-((3-fluoro-4-(4-(2-(4-(4-(4-(2-(2-((S)-2-((5-(1-methyl-1H-pyrazole-4-yl)-1H-[1,2,3]triazolo[4,5-b]pyrazine-1-yl)methyl)morpholino)pyrimidine-5-yl)benzyl)piperazine-1-il)acetyl)piperazine-1-il)phenyl)amino)piperidine-2,6-dione [ICT-0001379]
DC50 (c-MET [1]): < 100 nM
IC50 (SNU-638): < 100 nM
IC50 (EBC-1): < 100 nM
DC50 (c-MET [2]): < 100 nM

Compound: Cc1nn(C2CCC(=O)NC2=O)c(=O)c2ccc(NCCOCCOCCOCC(=O)N3CCC(COc4cnc(-c5cccc(Cn6nc(-c7cccc(C#N)c7)ccc6=O)c5)nc4)CC3)cc12 (stereo not shown) [ICT-0001088]
IC50 (MKN-45): 100 to 1000 nM
DC50 (c-MET [3]): < 100 nM

Compound: N#Cc1cccc(C2=NC(Cc3cccc(-c4ncc(OCC5CCN(CC(=O)N6CCN(CC7CCN(c8ccc9c(=O)n(C%10C=CC(=O)NC%10=O)ncc9c8)CC7)CC6)CC5)cn4)c3)C(=O)C=C2)c1 (stereo not shown) [ICT-0000975]
IC50 (MKN-45): < 100 nM
DC50 (c-MET [3]): 100 to 1000 nM

Compound: N#Cc1cccc(-c2ccc(=O)n(Cc3cccc(-c4ncc(-c5cccc(CN6CCN(c7ccc(NC8CCC(=O)NC8=O)cc7F)CC6)c5)cn4)c3)n2)c1 (stereo not shown) [ICT-0001434]
DC50 (c-MET [1]): < 100 nM
DC50 (c-MET [2]): > 1000 nM

Compound: Cn1cc(-c2cnc3c(nnn3CC3CN(c4ncc(-c5ccc(CN6CCC(CN7CCN(c8ccc9c(=O)n(C%10CCC(=O)NC%10=O)ncc9c8)CC7)CC6)cc5)cn4)CCO3)n2)cn1 [ICT-0000978, 3-(6-(4-((1-(4-(2-((S)-2-((5-(1-methyl-1H-pyrazole-4-yl)-1H-[1,2,3]triazolo[4,5-b]pyrazine-1-yl)methyl)morpholino)pyrimidine-5-il)benzyl)piperidine-4-il)methyl)piperazine-1-yl)1-oxopthalazine-2(1H)-yl)piperidine-2,6-dione]
IC50 (MKN-45): < 100 nM
DC50 (c-MET [3]): 100 to 1000 nM
